Results taken from paper PMC9059125 (Journal of Medicinal Chemistry, 2022).
Where two headings read alike, the source gives them in different places. Where a SMILES comes first, the peptide text is derived from it.

Key:
[1] = target: T1, human oxytocin receptor (OTR) (Homo sapiens, UniProt P30559); assay: NIMH PDSP FLIPR-TETRA Ca2+-mobilization assay; assay type: cell-based; conditions: agonist, Ca2+ assay, NIMH PDSP, n ≥ 2; read-out: EC50 ± SEM OTR
T1 construct: NIMH PDSP (data provider)
T1 sequence (P30559 1-389): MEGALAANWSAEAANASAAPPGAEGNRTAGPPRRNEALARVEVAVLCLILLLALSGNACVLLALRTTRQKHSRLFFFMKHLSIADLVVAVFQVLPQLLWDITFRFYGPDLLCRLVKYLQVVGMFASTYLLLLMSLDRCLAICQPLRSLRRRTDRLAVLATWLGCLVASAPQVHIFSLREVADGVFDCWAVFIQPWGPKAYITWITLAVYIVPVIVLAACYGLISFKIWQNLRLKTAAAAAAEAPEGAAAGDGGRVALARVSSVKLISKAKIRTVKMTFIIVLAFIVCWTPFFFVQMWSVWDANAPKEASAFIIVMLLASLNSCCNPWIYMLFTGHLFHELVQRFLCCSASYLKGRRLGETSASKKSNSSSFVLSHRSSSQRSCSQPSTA

[2] = simulated gi fluid, pH 6.8
[3] = simulated gi fluid, pH 1.2

SMILES	EC50 [1]	t1/2 SIF ([2]; pig)	t1/2 SIF [2]	t1/2 SGF [3]
[H][C@@]12CCCN1C(=O)[C@]1([H])CCCN1C(=O)[C@H]([C@@H](C)CC)NC(=O)[C@H](CO)NC(=O)[C@H](CCCCN)NC(=O)[C@H]([C@@H](C)O)NC(=O)[C@@H]1CSSC[C@H](NC(=O)[C@H]([C@@H](C)CC)NC2=O)C(=O)N[C@@H](Cc2ccc(O)cc2)C(=O)N[C@@H]([C@@H](C)CC)C(=O)N[C@@H](CCC(N)=O)C(=O)N[C@@H](CC(N)=O)C(=O)N1 [SFTI-1(OT^[2-5])] (HELM PEPTIDE1{C.T.K.S.I.P.P.I.C.Y.I.Q.N}$PEPTIDE1,PEPTIDE1,1:R3-9:R3|PEPTIDE1,PEPTIDE1,1:R1-13:R2$$$V2.0)	> 30 µM	31 ± 3 min	–	–
[H][C@@]12CCCN1C(=O)[C@H](CC)NC(=O)[C@H](CC(N)=O)NC(=O)[C@H](CCC(N)=O)NC(=O)[C@H]([C@@H](C)CC)NC(=O)[C@H](Cc1ccc(O)cc1)NC(=O)[C@@H]1CSSC[C@H](NC(=O)CNC(=O)[C@H](CC(C)C)NC2=O)C(=O)N[C@@H]([C@@H](C)O)C(=O)N[C@@H](CCCCN)C(=O)N[C@@H](CO)C(=O)N[C@@H]([C@@H](C)CC)C(=O)N2CCC[C@@]2([H])C(=O)N2CCC[C@@]2([H])C(=O)N[C@@H]([C@@H](C)CC)C(=O)N1 [SFTI-1(OT^[2-9])] (HELM PEPTIDE1{[Abu].P.L.G.C.T.K.S.I.P.P.I.C.Y.I.Q.N}$PEPTIDE1,PEPTIDE1,5:R3-13:R3|PEPTIDE1,PEPTIDE1,1:R1-17:R2$$$V2.0)	> 30 µM	3 ± 1 min	–	–
[H][C@@]12CCCN1C(=O)[C@]1([H])CCCN1C(=O)[C@H]([C@@H](C)CC)NC(=O)[C@H](CO)NC(=O)[C@H](CCCCN)NC(=O)[C@H]([C@@H](C)O)NC(=O)[C@@H]1CSSC[C@H](NC(=O)[C@H]([C@@H](C)CC)NC2=O)C(=O)N[C@@H](Cc2ccc(O)cc2)C(=O)N[C@@H](Cc2ccccc2)C(=O)N[C@@H](CCC(N)=O)C(=O)N[C@@H](CC(N)=O)C(=O)N1 [SFTI-1(VP^[2-5])] (HELM PEPTIDE1{C.T.K.S.I.P.P.I.C.Y.F.Q.N}$PEPTIDE1,PEPTIDE1,1:R3-9:R3|PEPTIDE1,PEPTIDE1,1:R1-13:R2$$$V2.0)	> 30 µM	12 ± 1 min	–	–
[H][C@@]12CCCN1C(=O)[C@H](CC)NC(=O)[C@H](CC(N)=O)NC(=O)[C@H](CCC(N)=O)NC(=O)[C@H](Cc1ccccc1)NC(=O)[C@H](Cc1ccc(O)cc1)NC(=O)[C@@H]1CSSC[C@H](NC(=O)CNC(=O)[C@H](CCCNC(=N)N)NC2=O)C(=O)N[C@@H]([C@@H](C)O)C(=O)N[C@@H](CCCCN)C(=O)N[C@@H](CO)C(=O)N[C@@H]([C@@H](C)CC)C(=O)N2CCC[C@@]2([H])C(=O)N2CCC[C@@]2([H])C(=O)N[C@@H]([C@@H](C)CC)C(=O)N1 [SFTI-1(VP^[2-9])] (HELM PEPTIDE1{[Abu].P.R.G.C.T.K.S.I.P.P.I.C.Y.F.Q.N}$PEPTIDE1,PEPTIDE1,5:R3-13:R3|PEPTIDE1,PEPTIDE1,1:R1-17:R2$$$V2.0)	> 30 µM	–	<3 min	–
CC[C@H](C)[C@@H]1NC(=O)[C@H](CCC(=O)O)NC(=O)[C@@H]2CCCN2C(=O)[C@H](Cc2cnc[nH]2)NC(=O)[C@H](CC(=O)O)NC(=O)[C@H](Cc2ccc(O)cc2)NC(=O)[C@H](CC(N)=O)NC(=O)[C@@H]2CSSC[C@H](NC(=O)CN)C(=O)N[C@@H](CSSC[C@@H](C(N)=O)NC1=O)C(=O)N[C@@H](CO)C(=O)N[C@@H](CC(=O)O)C(=O)N1CCC[C@H]1C(=O)N[C@@H](CCCNC(=N)N)C(=O)N2 [Vc1.1, reference compound]	–	144 ± 12 min	–	>24 h
[H][C@@]12CCCN1C(=O)[C@@H]1CSSC[C@H](NC(=O)CNC(=O)[C@H](CC(C)C)NC(=O)[C@]3([H])CCCN3C(=O)[C@@H]3CSSC[C@H](NC(=O)CNC(=O)[C@H](CC(C)C)NC2=O)C(=O)N[C@@H](Cc2ccc(O)cc2)C(=O)N[C@@H]([C@@H](C)CC)C(=O)N[C@@H](CCC(N)=O)C(=O)N[C@@H](CC(N)=O)C(=O)N3)C(=O)N[C@@H](Cc2ccc(O)cc2)C(=O)N[C@@H]([C@@H](C)CC)C(=O)N[C@@H](CCC(N)=O)C(=O)N[C@@H](CC(N)=O)C(=O)N1 [c(OT)2] (HELM PEPTIDE1{C.P.L.G.C.Y.I.Q.N.C.P.L.G.C.Y.I.Q.N}$PEPTIDE1,PEPTIDE1,1:R3-14:R3|PEPTIDE1,PEPTIDE1,5:R3-10:R3|PEPTIDE1,PEPTIDE1,1:R1-18:R2$$$V2.0)	–	–	<3 min	–
[H][C@@]12CCCN1C(=O)[C@@H]1CSSC[C@H](NC(=O)CNC(=O)[C@H](CC(C)C)NC(=O)[C@]3([H])CCCN3C(=O)[C@@H]3CSSC[C@H](NC(=O)CNC(=O)[C@H](CCCNC(=N)N)NC2=O)C(=O)N[C@@H](Cc2ccc(O)cc2)C(=O)N[C@@H]([C@@H](C)CC)C(=O)N[C@@H](CCC(N)=O)C(=O)N[C@@H](CC(N)=O)C(=O)N3)C(=O)N[C@@H](Cc2ccc(O)cc2)C(=O)N[C@@H](Cc2ccccc2)C(=O)N[C@@H](CCC(N)=O)C(=O)N[C@@H](CC(N)=O)C(=O)N1 [c(OT-VP)] (HELM PEPTIDE1{C.P.L.G.C.Y.F.Q.N.C.P.R.G.C.Y.I.Q.N}$PEPTIDE1,PEPTIDE1,1:R3-14:R3|PEPTIDE1,PEPTIDE1,5:R3-10:R3|PEPTIDE1,PEPTIDE1,1:R1-18:R2$$$V2.0)	–	–	<3 min	–
[H][C@@]12CCCN1C(=O)[C@@H]1CSSC[C@H](NC(=O)CNC(=O)[C@H](CCCNC(=N)N)NC(=O)[C@]3([H])CCCN3C(=O)[C@@H]3CSSC[C@H](NC(=O)CNC(=O)[C@H](CCCNC(=N)N)NC2=O)C(=O)N[C@@H](Cc2ccc(O)cc2)C(=O)N[C@@H](Cc2ccccc2)C(=O)N[C@@H](CCC(N)=O)C(=O)N[C@@H](CC(N)=O)C(=O)N3)C(=O)N[C@@H](Cc2ccc(O)cc2)C(=O)N[C@@H](Cc2ccccc2)C(=O)N[C@@H](CCC(N)=O)C(=O)N[C@@H](CC(N)=O)C(=O)N1 [c(VP)2] (HELM PEPTIDE1{C.P.R.G.C.Y.F.Q.N.C.P.R.G.C.Y.F.Q.N}$PEPTIDE1,PEPTIDE1,1:R3-14:R3|PEPTIDE1,PEPTIDE1,5:R3-10:R3|PEPTIDE1,PEPTIDE1,1:R1-18:R2$$$V2.0)	–	–	<3 min	–
